Assay results reported in patent US11999695B2, “YAP1 inhibitors that target the interaction of YAP1 with OCT4” (H. LEE MOFFITT CANCER CENTER AND RESEARCH INSTITUTE, INC., priority 2016, dated 2024).

Legend:
[1] = test system: cisplatin-insensitive SP cells from H1650 cells; assay: Sphere formation of cisplatin-insensitive SP cells (FIG. 30); type: cell-based; conditions: YAP1 inhibitors 2 uM, cisplatin 5 uM
Protocol: One feature of cancer stem cells is their drug resistance. Sphere formation of SP cells from H1650 cells was conduced in the presence of cisplatin; stem-like SP cells can self-renew and form spheres in stem-cell selective media and on low-adherence plates, even in the presence of 5 uM cisplatin (top right image).

[2] = test system: stem-like side-population (SP) cells; assay: Sphere-formation assay, self-renewal of side-population cells (FIG. 18-21); type: cell-based; conditions: SP cells in low-adherence plates, stem-cell selective media, 10 days
Protocol: FIG. 18 is a group of cell micrographs showing inhibition of self-renewals by selected compounds in a sphere formation assay. Self-renewal of stem-like side-population (SP) cells was measured by a sphere-formation assay. Essentially, side-population cells were sorted by flow cytometry based on Hoechst 33342 dye exclusion as described in our publications. Isolated SP cells were grown in low-adherence plates in stem-cell selective media for 10 days (Singh and Chellappan, 2012, Bora-Singhal et al., 2015 etc). Self-renewal ability of the stem-like cells can be assessed by the formation of spheres under these conditions; non-stem cells cannot self-renew and form spheres.
The assay is conducted for 10 days, and the number of spheres larger than 50 μm in diameter is counted.

YAP1:OCT4 = YAP1:OCT4 (Homo sapiens, UniProt P46937); assay: In vitro YAP1:OCT4 ELISA binding assay; conditions: YAP1:OCT4 disruption
YAP1:OCT4, sequence (P46937 whole entry): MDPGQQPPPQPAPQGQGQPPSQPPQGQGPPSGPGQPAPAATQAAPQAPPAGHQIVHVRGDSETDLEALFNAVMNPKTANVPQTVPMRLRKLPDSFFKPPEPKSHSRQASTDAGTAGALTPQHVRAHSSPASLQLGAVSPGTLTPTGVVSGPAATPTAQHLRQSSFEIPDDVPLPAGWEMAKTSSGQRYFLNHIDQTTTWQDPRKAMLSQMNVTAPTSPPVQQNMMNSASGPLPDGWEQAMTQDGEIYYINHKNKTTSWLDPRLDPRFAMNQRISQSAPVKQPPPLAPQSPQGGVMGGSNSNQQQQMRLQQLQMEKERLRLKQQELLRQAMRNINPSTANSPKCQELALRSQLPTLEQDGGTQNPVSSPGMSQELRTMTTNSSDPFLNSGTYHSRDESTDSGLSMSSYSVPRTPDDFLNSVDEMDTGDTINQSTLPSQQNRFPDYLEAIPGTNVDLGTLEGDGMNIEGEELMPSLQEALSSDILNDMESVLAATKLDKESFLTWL
Protocol: Activities of Compounds in the In Vitro YAP1:OCT4 ELISA Binding Assay
Selected compounds were assayed in a YAP1:OCT4 binding assay.

binding of Oct4 to YAP1 = target: T1, binding of Oct4 to YAP1 (Homo sapiens, UniProt P46937); assay: Immunoprecipitation-Western blot of Oct4-YAP1 binding (FIG. 15); type: cell-based; conditions: 5 μM, 72 hours
T1 construct: Lysates were prepared from the cells, and immunoprecipitated with an antibody to OCt4; endogenous in cells; host or cells: A549 and H1650 cells
T1 sequence (P46937 whole entry): as above
Protocol: FIG. 15 is a group of gel images showing peptidomimetic compounds SR2-022, SR2-030, and SR2-033 reduced YAP1-Oct4 interaction as detected by IP-WB. An immunoprecipitation-Western blot experiment was conducted to assess if the indicated compounds could disrupt the binding of Oct4 to YAP1. IP-western blots were conducted using the protocols described in Bora-Singhal et al, 2015. Essentially, cells were treated with 5 μM of the indicated compounds for 72 hours. Lysates were prepared from the cells, and immunoprecipitated with an antibody to OCt4, or a control IgG. Lysates as well as the immunoprecipitates were resoled by a polyacrylamide gel and a western blot was conducted using an antibody to YAP1.

[3] = test system: primary cancer associated fibroblasts; assay: Cytokine array (FIG. 40); type: cell-based
Sox2 [4] = assay: Sox2 protein expression, gel images (FIG. 16); type: cell-based; conditions: adenocarcinoma cells
Description: FIG. 16 is a group of gel images showing Sox2 protein expression was reduced by SR-2033 in adenocarcinoma cells.

[5] = test system: A549 lung adenocarcinoma cells; assay: Cytokine array on A549 cells (FIG. 39); type: cell-based
Description: FIG. 39 is a graph showing results from a cytokine array performed on A549 cells treated with SR2-033.

c-Myc = assay: Western blot of c-Myc expression (FIG. 17); type: cell-based; conditions: H1650 and A549 cells; 10 uM; 72 hours
Protocol: (§1) FIG. 17 is a group of gel images showing compounds SR2-046, SR2-051, and SR2-052 reduce Sox2, c-Myc expression in H165 and A549 cells. Cells were treated for 72 hours with the indicated compounds. A western blot showing the reduction of Sox2 expression in H1650 cells and in A549 cells after treatment with 10 uM of the drugs for 72 hours. There was a reduction in the levels of C-myc and phoshodiesterate kinase 2 as well. Western blotting was done using our standard protocols, as published in Bora-Singhal et al., 2015.

Sox2 [6] = assay: Western blot of Sox2 expression (FIG. 17); type: cell-based; conditions: H1650 and A549 cells; 10 uM; 72 hours
Protocol: as §1

[7] = test system: phoshodiesterate kinase 2; assay: Western blot of phoshodiesterate kinase 2 levels (FIG. 17); type: cell-based; conditions: 10 uM; 72 hours
Protocol: as §1

[8] = test system: methotrexate insensitive H146 small-cell lung carcinoma cells; assay: Sphere formation of methotrexate-insensitive cells (FIG. 31); type: cell-based; conditions: YAP1 inhibitors 2 uM, methotrexate 2.5 uM
Protocol: A similar experiment, where sphere formation of small-cell lung cancer cells, which are insensitive to methotrexate, was inhibited by YAP1 inhibitors. Sphere formation of SP cells from H146 small-cell lung carcinoma cells was conduced in the presence of 2.5 uM methotrexate; stem-like cells can self-renew and form spheres in stem-cell selective media and on low-adherence plates, even in the presence of 2.5 uM methotrexate.

Compound	IC50 (YAP1:OCT4) [µM]	c-Myc expression (western blot) (c-Myc)	Sox2 expression (western blot) (Sox2 [6])	levels of phoshodiesterate kinase 2 (western blot) [7]	further results
N.N.[Cl][Pt][Cl] [Cisplatin]	–	–	–	–	self-renewal (sphere formation) of dissociated cisplatin-insensitive spheres [1]: allowed self-renewal and formation of colonies; number of spheres [2]: no effect
COC(=O)[C@H](Cc1ccc(OCc2ccccc2)cc1)NC(=O)CC1CCN(C(=O)CCc2ccc(C#N)cc2)CC1 [SR2-033, Methyl (S)-3-(4-(benzyloxy)phenyl)-2-(2-(1-(3-(4-cyanophenyl)propanoyl)piperidin-4-yl)acetamido)propanoate]	< 10	–	–	–	YAP1-Oct4 interaction detected by IP-WB (binding of Oct4 to YAP1; A549 cells): completely abolished; YAP1-Oct4 interaction detected by IP-WB (binding of Oct4 to YAP1; H1650 cells): significantly reduced; levels of secreted cytokines (cytokine array) [3]: altered; Sox2 protein expression (Sox2 [4]): reduced; levels of secreted cytokines (cytokine array) [5]: altered
COC(=O)[C@H](Cc1ccc(OCc2ccccc2)cc1)NC(=O)CC1CCN(C(=O)CCCc2ccccc2)CC1 [SR2-046, Methyl (S)-3-(4-(benzyloxy)phenyl)-2-(2-(1-(4-phenylbutanoyl)piperidin-4-yl)acetamido)-propanoate]	< 10	reduce	reduce	reduction	–
COC(=O)[C@H](Cc1ccc(OCc2ccccc2)cc1)NC(=O)CC1CCN(C(=O)c2ccc(NC(=O)OC(C)(C)C)cc2)CC1 [SR2-051, Methyl (S)-3-(4-(benzyloxy)phenyl)-2-(2-(1-(4-((tert-butoxycarbonyl)amino)benzoyl)piperidin-4-yl)acetamido)propanoate]	< 10	reduce	reduce	reduction	–
COC(=O)[C@H](Cc1ccc(OCc2ccccc2)cc1)NC(=O)CC1CCN(C(=O)Cc2ccc(NC(=O)OC(C)(C)C)cc2)CC1 [SR2-052, Methyl (S)-3-(4-(benzyloxy)phenyl)-2-(2-(1-(2-(4-((tert-butoxycarbonyl)amino)phenyl)acetyl)piperidin-4-yl)acetamido)propanoate]	< 10	reduce	reduce	reduction	–
CN(Cc1cnc2nc(N)nc(N)c2n1)c1ccc(C(=O)N[C@@H](CCC(=O)O)C(=O)O)cc1 [methotrexate]	–	–	–	–	self-renewal (sphere formation) of dissociated methotrexate-insensitive spheres [8]: allowed self-renewal and formation of colonies
